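Each compound was tested at five concentrations against cells in 96-well plates for 48 hours. The concentration for 50% growth inhibition is given as GI50.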 Active and inactive are the calls of the source. Cut-off read from the data, not from the text of the source: active = GI50 up to about 1.1 µM and inactive = higher.

Consider nine molecules from ChEMBL document CHEMBL1201862, “PubChem BioAssay data set” (2004).

Among the test systems are NCI/ADR-RES; SNB-19; CCRF-CEM; HL-60; U-251; M14; MCF7; OVCAR-4; TK-10; MOLT-4; MDA-MB-435; NCI-H522; A549; EKVX; LOX IMVI; SK-MEL-28; IGROV-1; SNB-75; HCC 2998.
Common to all, as to assay: inhibition of tumour cell growth, NCI panel, 48 h

Consider `COc1cc2c(cc1OCCCN1CCN(C)CC1)N=C[C@@H]1CCCN1C2=O`, for which the GI50 in the experiment on NCI/ADR-RES was 3.5 µM (inactive); in the experiment with SNB-19 it was 4.06 µM (inactive); with CCRF-CEM it was 0.485 µM (active); in the experiment on HL-60 it was 1.41 µM (inactive); in the experiment on U-251, 0.935 µM (active); with M14 it was 1.86 µM (inactive). Moreover, the GI50 in the experiment on MCF7 is 1.22 µM (inactive); in the experiment on OVCAR-4, 2.15 µM (inactive); with TK-10 it was 3.34 µM (inactive); in the experiment on MOLT-4, 0.32 µM (active); in the experiment on MDA-MB-435, 1.9 µM (inactive); in the experiment on NCI-H522 it was 0.179 µM (active). The GI50 is 2.37 µM (inactive) in the experiment on A549, 2.03 µM (inactive) in the experiment with EKVX, 1.49 µM (inactive) in the experiment with LOX IMVI and 1.9 µM (inactive) in the experiment with SK-MEL-28.

Consider `COc1cc2c(c(OC(C)=O)c1OC(C)=O)-c1ccc(SC)c(=O)cc1C(NC(C)=O)CC2` (configuration not stated), for which the GI50 is 4.45 µM (inactive) with IGROV-1; 2.65 µM (inactive) in the experiment on SNB-19; 0.631 µM (active) with CCRF-CEM; 0.375 µM (active) with HL-60; 2.49 µM (inactive) in the experiment on U-251; 2.96 µM (inactive) with M14. Further, the GI50 was 0.255 µM (active) in the experiment on SNB-75; 9.82 µM (inactive) in the experiment on OVCAR-4; 28.7 µM (inactive) in the experiment with TK-10; 1.52 µM (inactive) in the experiment on MOLT-4; 0.379 µM (active) in the experiment on NCI-H522; 3.73 µM (inactive) with A549. Also, the GI50 was 2.51 µM (inactive) with HCC 2998, 32.1 µM (inactive) with EKVX, 1.13 µM (inactive) in the experiment with LOX IMVI and 3.24 µM (inactive) in the experiment with SK-MEL-28.

In the case of `CC(=O)CC(=O)Nc1ccccc1C(F)(F)F`, the GI50 in the experiment on IGROV-1, in the experiment on SNB-19, in the experiment on CCRF-CEM, with HL-60, in the experiment on U-251 and in the experiment with M14 was > 100 µM (inactive) in each case. Further, the GI50 in the experiment with SNB-75, in the experiment on OVCAR-4, in the experiment on TK-10, in the experiment with MOLT-4, in the experiment on NCI-H522 and with A549 was > 100 µM (inactive) in each case. The GI50 with HCC 2998, in the experiment on EKVX, with LOX IMVI and in the experiment with SK-MEL-28 was > 100 µM (inactive) in each case.

For the molecule `CC(C)C(Sc1nc(-c2ccccc2)c(-c2ccccc2)[nH]1)C(=O)NNC(=S)Nc1ccccc1` (configuration not stated), the GI50 with IGROV-1 is 18.4 µM (inactive); in the experiment with SNB-19, 41.9 µM (inactive); in the experiment with CCRF-CEM, 11.6 µM (inactive); in the experiment with HL-60, 20.4 µM (inactive); in the experiment on U-251, 15 µM (inactive); in the experiment with M14 it was 16.9 µM (inactive). Moreover, the GI50 in the experiment with SNB-75 was 19.5 µM (inactive); with OVCAR-4 it was 22.5 µM (inactive); in the experiment on TK-10 it was 29.3 µM (inactive); in the experiment with MOLT-4 it was 12.1 µM (inactive); with NCI-H522, 8.67 µM (inactive); in the experiment with A549, 25.5 µM (inactive). The GI50 was 0.0421 µM (active) in the experiment with HCC 2998, 23.8 µM (inactive) in the experiment on EKVX, 15.9 µM (inactive) with LOX IMVI and 22.7 µM (inactive) in the experiment with SK-MEL-28.

As to `Cc1ccc(-n2cnc3c(N/N=C4\SCC(=O)N4c4ccccc4)ncnc32)cc1`, the GI50 in the experiment with NCI/ADR-RES is 8.36 µM (inactive); in the experiment with IGROV-1 it was 4 µM (inactive); with SNB-19, 11.7 µM (inactive); in the experiment on CCRF-CEM, 0.437 µM (active); with HL-60, 1.41 µM (inactive); in the experiment on U-251, 4.72 µM (inactive). The GI50 is 3.66 µM (inactive) with M14; 8.75 µM (inactive) with OVCAR-4; 3.63 µM (inactive) in the experiment with TK-10; 1.82 µM (inactive) with MOLT-4; 2.02 µM (inactive) in the experiment on MDA-MB-435; 3.52 µM (inactive) in the experiment with NCI-H522. The GI50 with A549 was 11.9 µM (inactive); in the experiment with EKVX, 14.8 µM (inactive); in the experiment with LOX IMVI, 2.54 µM (inactive); in the experiment with SK-MEL-28, 2.95 µM (inactive).

Turning to `CCN(CC)C(=O)c1c(N2CCOCC2)cc(N(CC)CC)oc1=O`, the GI50 in the experiment on IGROV-1, in the experiment with SNB-19, in the experiment with CCRF-CEM, in the experiment on HL-60, in the experiment with U-251 and with M14 was > 100 µM (inactive) throughout. Also, the GI50 in the experiment on SNB-75, in the experiment with OVCAR-4, with TK-10, with MOLT-4, in the experiment on NCI-H522 and in the experiment with A549 was > 100 µM (inactive) in each case. In addition, the GI50 with HCC 2998, with EKVX, with LOX IMVI and in the experiment on SK-MEL-28 was > 100 µM (inactive) throughout.

Consider `COc1ccc(CNc2nc(NCc3ccc(OC)cc3)nc(NC3CCCC3)n2)cc1`, for which the GI50 in the experiment on NCI/ADR-RES was 2.7 µM (inactive); in the experiment with IGROV-1 it was 13.4 µM (inactive); with SNB-19, 6.28 µM (inactive); in the experiment on CCRF-CEM it was 2.24 µM (inactive); with HL-60 it was 3.34 µM (inactive); in the experiment on U-251, 4.5 µM (inactive). The GI50 in the experiment on M14 was 2.91 µM (inactive); in the experiment on SNB-75 it was 16.4 µM (inactive); with MCF7 it was 3.31 µM (inactive); with OVCAR-4 it was > 25.4 µM (inactive); with TK-10 it was 3.26 µM (inactive); with MOLT-4, 4.59 µM (inactive). The GI50 is 1.48 µM (inactive) with MDA-MB-435; 2.99 µM (inactive) in the experiment with NCI-H522; 5.26 µM (inactive) in the experiment with A549; 19.9 µM (inactive) in the experiment with EKVX; 5.78 µM (inactive) in the experiment with LOX IMVI; 10.9 µM (inactive) in the experiment on SK-MEL-28.

Consider `CC1=C(C(=O)Nc2cc(=O)n(C)c(=O)n2C)C(c2ccc([N+](=O)[O-])cc2)C(C(=O)Nc2cc(=O)n(C)c(=O)n2C)=C(C)N1`, for which the GI50 in the experiment on IGROV-1, in the experiment with SNB-19, with CCRF-CEM, in the experiment on HL-60, with U-251 and with M14 was > 100 µM (inactive) in each case. Further, the GI50 in the experiment on SNB-75 is 42 µM (inactive); in the experiment with OVCAR-4, 31.5 µM (inactive); with TK-10 it was > 100 µM (inactive); in the experiment with MOLT-4, 52.4 µM (inactive); with NCI-H522, 37.1 µM (inactive); in the experiment on A549, > 100 µM (inactive). Besides, the GI50 in the experiment with HCC 2998 is 94.8 µM (inactive); with EKVX, > 100 µM (inactive); in the experiment on LOX IMVI, 54.6 µM (inactive); with SK-MEL-28, > 100 µM (inactive).

As to `O=c1[nH]nc(N/N=C\c2ccc(Cl)cc2)c2ccccc12`, the GI50 is 19.6 µM (inactive) in the experiment with NCI/ADR-RES; 15.4 µM (inactive) with IGROV-1; 20.4 µM (inactive) in the experiment on SNB-19; 44 µM (inactive) with CCRF-CEM; > 100 µM (inactive) in the experiment on HL-60; 20.5 µM (inactive) with U-251. The GI50 in the experiment with M14 was 18.7 µM (inactive); with SNB-75, 22.6 µM (inactive); in the experiment on MCF7, 22.4 µM (inactive); in the experiment on OVCAR-4 it was 52.7 µM (inactive); with TK-10, 32.5 µM (inactive); in the experiment on MOLT-4, 60.3 µM (inactive). Moreover, the GI50 with MDA-MB-435 is 17.8 µM (inactive); with NCI-H522 it was 16.6 µM (inactive); with A549, 20.1 µM (inactive); in the experiment with EKVX it was 31.3 µM (inactive); in the experiment with SK-MEL-28, 23.3 µM (inactive).
